Measured values as given in patent publication US20060166869A1, “Novel use of lipopeptide preparations” (priority 2002, published 2006).
Where two headings read alike, the source gives them in different places.

Legend:
[1] = target: T1, Bordetella pertussis tilted peptide (Bordetella pertussis, UniProt P12255); type: biochemical; details: charged LUV, Tris NaCl buffer pH 7.4, Bordetella pertussis tilted peptide 2.42 μM (FIG. 8)
T1 construct: purchased EPYTOP (Nimes, France)
Excerpt: A number of different systems have been developed to assay peptide membrane fusion activity. Large unilamellar vesicles (LUV) are appropriate model for biological membrane fusion. Their curvature and their stability mimic suitably the cell membrane. Several different techniques for detecting and quantifying vesicle fusion are in common use. These include fluorescence assays that monitor fusion-induced lipid mixing between the two lipid bilayers of the membranes by observing the increase of fluorescence of a probe included in a part of vesicles in mixture. The dilution of the probe by fusion of the two bilayers from the two categories of vesicles causes a decrease of the self-quenching phenomenon leading to an increase of the fluorescence intensity.
Two sets of LUV are prepared: LUV with fluorescent probe (labelled LUV) and free probe LUV (unlabelled LUV). The probe used is the octadecyl rhodamine chloride (R18) (Molecular probes, Eugene, Oreg.).
The first step is the preparation of large multilamellar vesicles. For this, a mixing of different lipids is operated in a round bottomed Büchi flask. […]
Vesicles fusion is determined by measuring the fluorescence intensity change resulting from the fluorescence of the R18 probe. Fluorescence is monitored using fluorimeter LS-50B Perkin-Elmer (Norwalk, Conn. USA). […]

SIV tilted peptide = target: T2, SIV tilted peptide (Simian immunodeficiency virus, UniProt P05885); type: biochemical; details: for concentration at which inhibition is complete: Tris NaCl buffer pH 7.4, SIV tilted peptide 0.966 μM (FIG. 6); for inhibition of LUV fusion: Tris NaCl buffer pH 7.4, SIV tilted peptide 0.966 μM; for concentration at which complete (or nearly complete) inhibition of fusion is reached: Tris NaCl buffer pH 8.0, SIV tilted peptide 0.966 μM (FIG. 2)
T2 construct: SIV; 12; 528-539; GVFVLGFLGFLA; purchased SYNT:EM (Nimes, France)

[2] = uncharged LUV, Tris buffer without NaCl pH 8.0, SIV tilted peptide 0.966 μM (FIG. 5)

Substance | concentration at which the fusogenic effect is inhibited completely [1] [µM] | concentration at which inhibition is complete (SIV tilted peptide; charged LUV) [µM] | concentration at which complete (or nearly complete) inhibition of fusion is reached (SIV tilted peptide; charged LUV) [µM] | also measured
cyclic fengycin A with a β-hydroxyled fatty acid chain containing 16 carbon atoms [FAC16] | ~1.61 | ~2.4 | ~1 | inhibition of LUV fusion (SIV tilted peptide; charged LUV, agent at 0.8 μM (FIG. 6)): 90%
cyclic surfactin with a linear β-hydroxyled fatty acid chain containing 14 carbon atoms [SC14] | – | – | ~2.4 | –
cyclic surfactin with an iso-branched β-hydroxyled fatty acid chain containing 13 carbon atoms [SC13] | – | – | > 4.8 | –
cyclic surfactin with an iso-branched β-hydroxyled fatty acid chain containing 15 carbon atoms [SC15] | ~4.8 | ~2.4 | ~2.4 | concentration at which fusion is completely inhibited (SIV tilted peptide; uncharged LUV, Tris NaCl buffer pH 8.0, SIV tilted peptide 0.966 μM (FIG. 4)): ~3.2 µM; antifusogenic activity in absence of NaCl compared with Tris NaCl buffer (SIV tilted peptide; [2]): slightly improved; concentration at which complete inhibition is reached (SIV tilted peptide; [2]): ~2 µM
linear surfactin, with an linear β-hydroxylated fatty acid chain containing 14 carbon atoms and with a linear peptide part [LSC14] | – | – | – | inhibition of LUV fusion (SIV tilted peptide; charged LUV, agent at concentration near 2 μM (FIG. 6)): 60%
lysophosphatidylcholine [reference compound] | – | – | – | effect on the fusion percentage (SIV tilted peptide; charged LUV, Tris NaCl buffer pH 8.0, agent at concentrations below 1 μM (FIG. 2)): no effect at all; antifusogenic activity (SIV tilted peptide; charged LUV, Tris NaCl buffer pH 8.0, agent at concentrations between 1 and 2 μM (FIG. 2)): < 50%
